According to US4766122A, “Cyanoamidine compounds and derivatives thereof” (Smith Kline & French Laboratories Limited, priority 1985, dated 1988):

How the values were obtained:
[1] = system: left ventricular dp/dt max (left ventricular contractility); experiment: Cardiac stimulant activity in vivo: left ventricular dp/dt max in anaesthetised cats; design: species or system cat; details: anaesthetised cats pretreated with pempidine and propranolol, intravenous
PDE (Peak III) [2] = experiment: Inhibition of PDE (Peak III) from cat heart; format: biochemical; details: read-out: IC50 (50% inhibition of PDE (Peak III) activity); 1 μM cyclic AMP, 37°, pH 7.5
Procedure: (§1) There were three major peaks which had the following characteristics:
(§2) The enzyme was assayed by incubation at 37° for 4-30 min in 50 mM Tris, 5 mM MgCl2, pH 7.5 with [3-H]cyclic nucleotide (4×10^5 disintegrations min^-1) and [14-C]nucleotide 5' monophosphate (3×10^3 disintegrations min^-1). […] The reaction mixture was diluted with 0.5 ml 100 mM HEPES (N-2-Hydroxyethyl-piperazine-N'-2-ethanesulfonic acid), 100 mM NaCl, pH 8.5, and applied to the column. […] The recovery of product as judged by [14-C]recovery was approximately 80%. All assays were linear with time of incubation and concentration of enzyme over the range used in these experiments.

[3] = system: guinea pig right ventricular strips; experiment: Cardiac stimulant activity in vitro: increase in force of contraction of electrically stimulated ventricular strips; details: Cavia porcellus, read-out: EC50 (50% increase in the force of contraction of the ventricular strips); 37° C., stimulated at 1.0 Hz, cumulative concentration response
Procedure: The compounds of formula (I) and their pharmaceutically acceptable salts are tested for cardiac stimulant activity following a procedure based on that of S.C. Verma and J. H. McNeill (J. Pharm & Exp. Therapeutics, 200, 352-362 (1977)). Guinea pigs (500-700 g) of either sex are sacrificed and the hearts are quickly removed and transferred to a dissecting dish containing oxygenated bathing fluid. While in the bathing medium, the right ventricle is cut into two strips. The strips are each suspended in a 50 ml bath containing Krebs Henseleit solution at 37° C., and the bath is bubbled with 95% oxygen and 5% carbon dioxide. The ventricular strips are electrically stimulated at a frequency of 1.0 Hz, at double the threshold voltage. A resting tension of 1.0 g is applied to the strips and the tension is kept constant by readjustment during an equilibration period of 60 minutes. The bathing fluid is frequently changed during this period. When a steady base line is obtained, a compound under test is added to the bathing fluid and a cumulative concentration response curve is plotted.

PDE (Peak I) = experiment: Substrate kinetics of PDE (Peak I) from cat heart; format: biochemical
PDE (Peak III) [4] = details: eluted at 0.5 M Na acetate
Procedure: as §1, §2

PDE (Peak II) = details: eluted at 0.3 M Na acetate
Procedure: as §1, §2

| IC50 (PDE (Peak III) [2]) [nM] | EC50 [3] [nM] | Km (PDE (Peak III) [4]) [µM] | Km (PDE (Peak II)) [µM] | SMILES | duration of activity [1] | ED50 ([1]; Felis catus, read-out: ED50 (dose to increase left ventricular dp/dt max by 50%)) [µmol/kg] | Relative Vmax (PDE (Peak I); 50 μg/ml calmodulin added) | Relative Vmax (PDE (Peak I); without 50 μg/ml calmodulin) | Relative Vmax (PDE (Peak III) [4]) | Relative Vmax (PDE (Peak II)) |
| --- | --- | --- | --- | --- | --- | --- | --- | --- | --- | --- |
|  |  |  |  | Nc1cc(-c2ccncc2)c[nH]c1=O [Amrinone] | short duration of activity |  |  |  |  |  |
| 80 | 65 |  |  | CCC(=NC#N)Nc1ccc(C2=NNC(=O)CC2C)cc1 (centres unmarked) [Example 1, 6-[4-(N^2 -Cyanopropanimidamido)phenyl]-5-methyl-4,5-dihydro-3(2H)-pyridazinone] | long duration of activity | 0.02 |  |  |  |  |
|  |  | 2.9 | 28 | Nc1nc2c(ncn2[C@@H]2O[C@@H]3COP(=O)(O)O[C@H]3[C@H]2O)c(=O)[nH]1 [cyclic GMP] |  |  | 7.2 | 1.1 | 0.4 | 0.2 |
